Test results as given in PMC8523172, “Structure of mycobacterial CIII2CIV2 respiratory supercomplex bound to the tuberculosis drug candidate telacebec (Q203)” (eLife, 2021).

Assays:
Type in all cases: biochemical
[1] = biological target: T1, CIII2CIV2 supercomplex, subunit QcrB (QP site) (Mycolicibacterium smegmatis, UniProt I7FGS8+I7GD61); assay: oxygen consumption (DMWH2:O2 oxidoreductase) inhibition of purified enzyme
T1 construct: purified CIII2CIV2 supercomplex with 3×FLAG tag at the C terminus of QcrB; with QcrA (Rieske subunit) within CIII2CIV2

[2] = biological target: T1, CIII2CIV2 supercomplex, subunit QcrB (QP site); assay: Clark-type electrode oxygen consumption, purified enzyme turnover ([…] substrate)
[3] = biological target: T1, CIII2CIV2 supercomplex, subunit QcrB (QP site); assay: Clark-type electrode oxygen consumption, purified enzyme

CCc1nc2ccc(Cl)cn2c1C(=O)NCc1ccc(N2CCC(c3ccc(OC(F)(F)F)cc3)CC2)cc1 [telacebec]
IC50 [1]: 53 ± 19 nM

Cc1c(C)c(O)c2ccccc2c1O [DMWH2, 2,3-dimethyl-[1,4]naphthohydroquinone]
Clark-type electrode oxygen consumption, purified enzyme turnover (100 μM substr) [2]: 91 ± 4 e^-/s

Cc1cc(O)c2ccccc2c1O [menadiol, 2-methyl-[1,4]naphthohydroquinone]
Clark-type electrode oxygen consumption, purified enzyme [3]: CIII2CIV2 activity is greater with DMWH2 green curve, than with menadiol brown curve
